Source: ChEMBL document CHEMBL4706634, “PEGylated and Acylated Elabela Analogues Show Enhanced Receptor Binding, Prolonged Stability, and Remedy of Acute Kidney Injury” (J Med Chem, 2020)
Calls of active or inactive are those of the source. The calls are words filed in the database; no cut-off is given here.

Columns and labels:
Mus musculus [1] = assay: Reno-protective activity in C57BL/6 mouse model of renal I/R injury assessed as reduction in serum creatinine level dosed intraperitoneally twice per day for 3 days from day of I/R injury to end of experiment; format: functional, organism-based; conditions: time 3.0 day
[2] = Stability in human plasma assessed as half life at 1.56 mM by RP-HPLC analysis; format: ADME, cell-free
Mus musculus [3] = assay: Reno-protective activity in C57BL/6 mouse model of renal I/R injury assessed as reduction in apoptosis by measuring increase in number of TUNEL+ cells dosed intraperitoneally twice per day for 3 days from day of I/R injury to end of experiment by TUNEL assay; format: functional, organism-based; conditions: time 3.0 day
Mus musculus [4] = assay: Reno-protective activity in C57BL/6 mouse model of renal I/R injury assessed as reduction in fibrosis by measuring collagen deposition dosed intraperitoneally twice per day for 3 days from day of I/R injury to end of experiment by Masson staining based assay; format: functional, organism-based; conditions: time 3.0 day
Mus musculus [5] = assay: Reno-protective activity in C57BL/6 mouse model of renal I/R injury assessed as reduction TNF-alpha mRNA levels dosed intraperitoneally twice per day for 3 days from day of I/R injury to end of experiment by qPCR analysis; format: functional, organism-based; conditions: time 3.0 day
Mus musculus [6] = assay: Reno-protective activity in C57BL/6 mouse model of renal I/R injury assessed as reduction in tubular epithelial cell apoptosis dosed intraperitoneally twice per day for 3 days starting from 6 to 24 hrs post I/R operation by TUNEL assay; format: functional, organism-based; conditions: time 3.0 day
Mus musculus [7] = assay: Reno-protective activity in C57BL/6 mouse model of renal I/R injury assessed as reduction N-gal mRNA levels dosed intraperitoneally twice per day for 3 days from day of I/R injury to end of experiment by qPCR analysis; format: functional, organism-based; conditions: time 3.0 day
Mus musculus [8] = assay: Reno-protective activity in C57BL/6 mouse model of renal I/R injury assessed as reduction neutrophil infiltration dosed intraperitoneally twice per day for 3 days starting from 6 to 24 hrs post I/R operation; format: functional, organism-based; conditions: time 3.0 day
[9] = Stability in mouse plasma assessed as intact peptide level at 1.56 mM incubated for 1 hr by RP-HPLC analysis; format: ADME, cell-free; conditions: read-out: Stabilty
Mus musculus [10] = assay: Reno-protective activity in C57BL/6 mouse model of renal I/R injury assessed as reduction in cleaved-caspase-3 levels dosed intraperitoneally twice per day for 3 days from day of I/R injury to end of experiment by Western blot analysis; format: functional, organism-based; conditions: time 3.0 day
Mus musculus [11] = assay: Reno-protective activity in C57BL/6 mouse model of renal I/R injury assessed as improvement in pathologies in injured kidneys dosed intraperitoneally twice per day for 3 days from day of I/R injury to end of experiment by hematoxylin and eosin staining based assay; format: functional, organism-based; conditions: time 3.0 day
Mus musculus [12] = assay: Reno-protective activity in C57BL/6 mouse model of renal I/R injury assessed as suppression of reduction in cleaved-caspase-8 levels dosed intraperitoneally twice per day for 3 days from day of I/R injury to end of experiment by Western blot analysis; format: functional, organism-based; conditions: time 3.0 day
Mus musculus [13] = assay: Reno-protective activity in C57BL/6 mouse model of renal I/R injury assessed as reduction in fibrosis by measuring collagen deposition dosed intraperitoneally twice per day for 3 days starting from 6 to 24 hrs post I/R operation by Masson staining based assay; format: functional, organism-based; conditions: time 3.0 day
Mus musculus [14] = assay: Reno-protective activity in C57BL/6 mouse model of renal I/R injury assessed as reduction in p-MLK levels dosed intraperitoneally twice per day for 3 days from day of I/R injury to end of experiment by Western blot analysis; format: functional, organism-based; conditions: time 3.0 day
[15] = Stability in mouse plasma assessed as half life at 1.56 mM by RP-HPLC analysis; format: ADME, cell-free
NRK-52E [16] = assay: Cytoprotective activity in rat NRK-52E cells assessed as reduction in cisplatin-induced cell death at 300 pM incubated for 24 hrs; format: functional, cell-based
Mus musculus [17] = assay: Reno-protective activity in C57BL/6 mouse model of renal I/R injury assessed as suppression of renal tubular damage dosed intraperitoneally twice per day for 3 days starting from 6 to 24 hrs post I/R operation by hematoxylin and eosin staining based assay; format: functional, organism-based; conditions: time 3.0 day
Mus musculus [18] = assay: Reno-protective activity in C57BL/6 mouse model of renal I/R injury assessed as reduction Il6 mRNA levels dosed intraperitoneally twice per day for 3 days from day of I/R injury to end of experiment by qPCR analysis; format: functional, organism-based; conditions: time 3.0 day
Mus musculus [19] = assay: Reno-protective activity in C57BL/6 mouse model of renal I/R injury assessed as reduction in serum BUN level dosed intraperitoneally twice per day for 3 days from day of I/R injury to end of experiment; format: functional, organism-based; conditions: time 3.0 day
Mus musculus [20] = assay: Reno-protective activity in C57BL/6 mouse model of renal I/R injury assessed as reduction Kim1 mRNA levels dosed intraperitoneally twice per day for 3 days from day of I/R injury to end of experiment by qPCR analysis; format: functional, organism-based; conditions: time 3.0 day
Mus musculus [21] = assay: Reno-protective activity in C57BL/6 mouse model of renal I/R injury assessed as suppression of renal dysfunction dosed intraperitoneally twice per day for 3 days starting from 6 hrs post I/R operation by hematoxylin and eosin staining based assay; format: functional, organism-based; conditions: time 3.0 day
Mus musculus [22] = assay: Reno-protective activity in C57BL/6 mouse model of renal I/R injury assessed as reduction lymphocyte infiltration dosed intraperitoneally twice per day for 3 days from day of I/R injury to end of experiment; format: functional, organism-based; conditions: time 3.0 day
Mus musculus [23] = assay: Reno-protective activity in C57BL/6 mouse model of renal I/R injury assessed as reduction Kim1 mRNA expression dosed intraperitoneally twice per day for 3 days starting from 6 to 24 hrs post I/R operation by qPCR analysis; format: functional, organism-based; conditions: time 3.0 day
Mus musculus [24] = assay: Reno-protective activity in C57BL/6 mouse model of renal I/R injury assessed as reduction in tubular epithelial cell necroptosis dosed intraperitoneally twice per day for 3 days starting from 6 to 24 hrs post I/R operation by TUNEL assay; format: functional, organism-based; conditions: time 3.0 day
[25] = Half life in mouse at 3 umol/kg, iv by analytical RP-HPLC analysis; format: ADME, organism-based; conditions: in vivo, dose 3 µmol/kg
Mus musculus [26] = assay: Reno-protective activity in C57BL/6 mouse model of renal I/R injury assessed as reduction lymphocyte infiltration dosed intraperitoneally twice per day for 3 days starting from 6 to 24 hrs post I/R operation; format: functional, organism-based; conditions: time 3.0 day
Mus musculus [27] = assay: Reno-protective activity in C57BL/6 mouse model of renal I/R injury assessed as reduction neutrophil infiltration dosed intraperitoneally twice per day for 3 days from day of I/R injury to end of experiment; format: functional, organism-based; conditions: time 3.0 day
NRK-52E [28] = assay: Cytoprotective activity in rat NRK-52E cells assessed as reduction in H/R-injury induced cell death at 300 pM incubated for 24 hrs; format: functional, cell-based
Apelin receptor = target: T1, Apelin receptor (Rattus norvegicus, UniProt Q9JHG3); assay: Agonist activity at APJ receptor in rat NRK-52E cells assessed as effect on cAMP accumulation incubated for 1 hr by cAMP-Glo assay; format: functional, cell-based
T1 sequence (Q9JHG3 whole entry): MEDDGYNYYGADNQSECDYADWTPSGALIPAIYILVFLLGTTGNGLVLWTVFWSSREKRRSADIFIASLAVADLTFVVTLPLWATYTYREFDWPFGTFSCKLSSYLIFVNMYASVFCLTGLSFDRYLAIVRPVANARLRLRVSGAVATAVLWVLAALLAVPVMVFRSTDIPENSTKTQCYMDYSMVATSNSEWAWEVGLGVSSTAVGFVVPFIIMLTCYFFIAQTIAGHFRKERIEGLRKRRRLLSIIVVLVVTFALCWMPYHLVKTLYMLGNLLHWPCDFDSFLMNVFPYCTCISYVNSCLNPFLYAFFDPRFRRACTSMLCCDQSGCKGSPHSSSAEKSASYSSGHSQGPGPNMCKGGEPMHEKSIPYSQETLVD

SMILES | half-life at 1560 µM [2] | Activity (Mus musculus [3]) | Activity (Mus musculus [4]) | remaining at 1 h, 1560 µM [9] | Activity (Mus musculus [10]) | Activity (Mus musculus [11]) | Activity (Mus musculus [12]) | Activity (Mus musculus [14]) | half-life at 1560 µM [15] | Activity (NRK-52E [16]) | Activity (Mus musculus [22]) | half-life [25] | Activity (Mus musculus [27]) | Activity (NRK-52E [28]) | other results
CCCCCCCCCCCCCCCC(=O)N[C@@H](CCC(=O)N[C@@H](CS)C(=O)N[C@@H](CCSC)C(=O)N1CCC[C@H]1C(=O)N[C@@H](CC(C)C)C(=O)N[C@@H](Cc1c[nH]cn1)C(=O)N[C@@H](CO)C(=O)N[C@@H](CCCNC(=N)N)C(=O)N[C@H](C(=O)N1CCC[C@H]1C(=O)N[C@@H](Cc1ccccc1)C(=O)N1CCC[C@H]1C(N)=O)C(C)C)C(=O)O | 118 min | Active | Active | 63.6% | Active | Active | Active | Active | 87 min | Active | Active | 1350 min | Active | Active | Activity (Mus musculus [1]): Active; Activity (Mus musculus [5]): Active; Activity (Mus musculus [6]): Active; Activity (Mus musculus [7]): Active; Activity (Mus musculus [8]): Active; Activity (Mus musculus [13]): Active; Activity (Mus musculus [17]): Active; Activity (Mus musculus [18]): Active; Activity (Mus musculus [19]): Active; Activity (Mus musculus [20]): Active; Activity (Mus musculus [21]): Active; Activity (Mus musculus [23]): Active; Activity (Mus musculus [24]): Active; Activity (Mus musculus [26]): Active
CSCC[C@H](NC(=O)[C@@H](N)CS)C(=O)N1CCC[C@H]1C(=O)N[C@@H](CC(C)C)C(=O)N[C@@H](Cc1c[nH]cn1)C(=O)N[C@@H](CO)C(=O)N[C@@H](CCCNC(=N)N)C(=O)N[C@H](C(=O)N1CCC[C@H]1C(=O)N[C@@H](Cc1ccccc1)C(=O)N1CCC[C@H]1C(N)=O)C(C)C | 23.4 min | Active | Active | 19% | Active | Active | Active | Active | 22.8 min | Active | Active | 21 min | Active | Active | 
CCCCCCCCCCCCCCCC(=O)N[C@@H](CCC(=O)NCCCC[C@H](N)C(=O)N[C@@H](CS)C(=O)N[C@@H](CCSC)C(=O)N1CCC[C@H]1C(=O)N[C@@H](CC(C)C)C(=O)N[C@@H](Cc1c[nH]cn1)C(=O)N[C@@H](CO)C(=O)N[C@@H](CCCNC(=N)N)C(=O)N[C@H](C(=O)N1CCC[C@H]1C(=O)N[C@@H](Cc1ccccc1)C(=O)N1CCC[C@H]1C(N)=O)C(C)C)C(=O)O | 37.8 min | Active | Active | 25.8% | Active | Active | Active | Active | 30 min |  | Active |  | Active |  | EC50 (Apelin receptor): 7.98 nM
